Laboratory results published in US12163950B2, “Synthetic odorant receptors” (Duke University, priority 2018, dated 2024).

Experiments:
Mut-OR10 = experiment: cAMP-mediated luciferase reporter gene assay, triple Arg mutant of consensus OR10; format: cell-based, human; settings: FIG. 10F
Description: (§1) FIG. 10A-B. Consensus OR1, OR6, OR10 and OR52 are functionally expressed in Hana3A cells, as indicated by cAMP-mediated luciferase assays. (A) Heatmap of ORs responses to 30 uM odorant selected from a previously screened panel of 320 compounds. Luciferase activity was normalized for each OR by setting as 1.0 the highest response value, and 0 as the lowest response value. (B) Dose-response curve of consensus ORs to candidate ligands ranging from 0 to 316 uM or 1 mM. Cells transfected with pCI vector were used as a negative control. Luciferase activity was normalized by setting as 1.0 the highest response value, and 0 as the lowest response value of each experiment. n=3, error bars indicate SEM.
(§2) FIG. 10C-D-E-F. Improvement of OR expression by mutations in TM1 and Helix 8. (C) Homology model of hOR10. Each TM is highlighted in a colored tubes and residues D511.60, S521.61, H531.62 and E294H8 are represented in licorice (pink). (D) Zoom on the residues 1.60, 1.61, 1.62, H8 mutated for hOR1 (red), hOR10 (blue), hOR51 (green) and hOR52 (pink). […]
(§3) The consensus ORs already show a clear increase of cell surface expression in comparison to naturally-occurring ORs. […] Experiments evaluated the cell surface expression of the consensus ORs with their corresponding triple Arg mutants, including a well-studied non-olfactory class A GPCR, the muscarinic 3 receptor (M3) (FIG. 10E). […]

Mut-OR52 = experiment: cAMP-mediated luciferase reporter gene assay, triple Arg mutant of consensus OR52; format: cell-based, human; settings: FIG. 10F
Description: as §1, §2, §3

response of Mut-OR10 compared to consensus OR10 (Mut-OR10)	response of Mut-OR10 to its agonist (luciferase activity) (Mut-OR10; dose-response)	response of Mut-OR52 to its agonist (luciferase activity) (Mut-OR52)	SMILES
diminished compared to OR10	responded	–	CC(=O)/C=C/C1=C(C)CCCC1(C)C [0-ionone, β-ionone]
–	–	responded	CCCCCCCCC(=O)O [nonanoic acid]
